Measurements from PubChem BioAssay AID2060910 (Molecular Pharmacology Branch, DTP, NCI, 2025).

System: 242566-281-R-J2-PDC complex spheroid viability
Assay: Anticancer human tumor 242566-281-R-J2-PDC patient-derived pancreatic carcinoma cell line growth inhibition [RAS]
Settings: for IC50: curve of first compound; for viability, T/C: stronger effect = lower value
From the text: RAS pathway inhibitors in Combinations in Complex Spheroids
A high-throughput screen of multi-cell type tumor spheroids was designed to identify active combinations of RAS pathway inhibitors and targeted small molecules. Complex spheroids include a stromal component modeled by human endothelial cells (HUVEC) and fibroblasts modeled by human mesenchymal stem cells (MSCs). The concentration ranges selected for each drug and investigational agent were based upon clinically achievable concentrations if the clinical Cmax of the agent was known.
Compounds. The drugs and investigational agents: abemaciclib (NSC768073), cobimetinib (NSC768068), divarasib (GDC6063, NSC841802), docetaxel (NSC628503), GDC-1971 (RLY-1971, NSC841576), gemcitabine (NSC613327), inavolisib (NSC800729), ipatasertib (NSC767898), KB-0742 (NSC834161), MRTX-1133 (NSC836407), osimertinib (NSC779217), RMC-4630 (NSC839698), RMC-6236 (NSC851965), RMC-6291 (NSC852671), Ro-3306 (NSC812927), sapanisertib (NSC764658), SN-38 (NSC673596), staurosporine (NSC755774), SY5609 (NSC837396), and tovorafenib (DAY101, NSC766906), were obtained from the National Cancer Institute (NCI) Developmental Therapeutics Program Chemical Repository. The FDA-approved anticancer drug set is available from the NCI Developmental Therapeutics Program. […] The stock solutions were prepared in dimethyl sulfoxide (DMSO, Sigma-Aldrich, St. Louis, MO, cat. D2650) at 800-fold the tested concentration and stored at -70 degrees C prior to their use. All drugs and investigational agents were tested over a range starting from a high concentration at or near the clinical Cmax and decreasing in half-log increments. If the clinical Cmax for an agent had not been determined, the highest concentration tested was 10 microM.
Cell Culture. All cells were maintained in an incubator at 37 degrees C and 5% CO2 with 95% humidity. The PDC lines were cultured according to standard operating procedures established by the NCI PDMR. All PDCs were thawed and cultured in Matrigel-coated flasks prepared with a working solution of 1X Ham's F-12 nutrient mix, without supplementation (Invitrogen, Waltham, MA, cat. 11765054), 100 U/mL penicillin-streptomycin (Invitrogen, cat. 15140122), and 2.5% Matrigel (Corning Inc., Corning, NY, cat. 354248) for the first three passages. The 362531-283-R-J2-PDC and 782815-120-R-J1-PDC lines were cultured in 6C/Colon 1B media, which includes advanced DMEM/F-12 (Thermo Fisher Scientific, cat. 12634028), 10 mM HEPES (Thermo Fisher Scientific, cat. 15630080), 1X GlutaMAX supplement (Thermo Fisher Scientific, cat. 35050061), 0.1 mg/mL primocin (InvivoGen, San Diego, CA, cat. ant-pm-2), 10% defined fetal bovine serum, heat inactivated (HyClone Laboratories Inc., Logan, UT, cat. SH30070.03HI), 50% L-WRN conditioned media (ATCC, cat. CRL-3276), 1.25 mM N-Acetyl-L-cysteine (Sigma-Aldrich, cat. A9165), 10 mM nicotinamide (Sigma-Aldrich, cat. N0636), 1X B-27 supplement (Thermo Fisher Scientific, cat. 17504044), 1X N-2 supplement (Thermo Fisher Scientific, cat. 17502048), 50 ng/mL human EGF (Thermo Fisher Scientific, cat. PHG0311), and 10 microM Y-27632 dihydrochloride (Tocris Bioscience, cat. 1254). The K12877-001-R-J1-PDC line was cultured in 6I media, which includes all 6C/Colon 1B media plus 10 ng/mL human FGF-10 (PeproTech, cat. 100-26), 1 ng/mL human FGF-2 (PeproTech, cat. 100-18B), 1 µM prostaglandin E2 (Tocris Bioscience, cat. 2296), […] hydrocortisone (Sigma-Aldrich, cat. H4001), and […] bovine insulin (Sigma-Aldrich, cat. I6634). The K86415-001-R-J1-PDC line was cultured in 6D media, which includes all 6C/Colon 1B media components minus the L-WRN conditioned media. The 485176-168-R4-J1-PDC was cultured in PANC media, which includes all 6C/Colon 1B media plus 100 ng/mL human FGF-10 (PeproTech, cat. 100-26), 500 nM SB-431542 (Selleckchem, cat. S1067), and 10 nM gastrin (Tocris Bioscience, cat. 3006). […]

[1] = second compound 0.0316 µM, first compound 0.0316 µM
[2] = second compound 0.0316 µM, first compound 0.1 µM
[3] = second compound 0.1 µM, first compound 0.0316 µM
[4] = second compound 0.1 µM, first compound 0.1 µM
[5] = second compound 0.316 µM, first compound 0.0316 µM
[6] = second compound 0.316 µM, first compound 0.1 µM
[7] = second compound 1 µM, first compound 0.0316 µM
[8] = second compound 1 µM, first compound 0.1 µM
[9] = second compound 3.16 µM, first compound 0.0316 µM
[10] = second compound 3.16 µM, first compound 0.1 µM
[11] = second compound 10 µM, first compound 0.0316 µM
[12] = second compound 10 µM, first compound 0.1 µM
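Further: spheroids exposed to compound for 7 days before readout.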
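Wherever viability, T/C is given: 100% = DMSO vehicle control wells.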

Q: `CC(C)n1nc(-c2ccc3oc(N)nc3c2)c2c(N)ncnc21` + C#Cc1c(F)ccc2cc(O)cc(-c3ncc4c(N5CC6CCC(C5)N6)nc(OCC56CCCN5CC(F)C6)nc4c3F)c12 was tested. Which IC50 (second compound 0.0316 µM) did it give?
A: The IC50 was 67.5 nM.

Q: And the IC50 (second compound 0.1 µM)?
A: The IC50 was 9.86 nM.

Q: And the IC50 (second compound 0.316 µM)?
A: Its IC50 is 6.58 nM.

Q: What about the IC50 (second compound 1 µM) of the same compound?
A: The IC50 was 3.24 nM.

Q: And the IC50 (second compound 3.16 µM)?
A: The IC50 was 0.918 nM.

Q: What about the IC50 (second compound 10 µM) of the same compound?
A: Its IC50 is 0.639 nM.

Q: What about the viability, T/C (second compound 0.0316 µM, first compound 0.000316 µM) of the same compound?
A: The viability, T/C was 91.9%.

Q: What about the viability, T/C (second compound 0.0316 µM, first compound 0.001 µM) of the same compound?
A: The viability, T/C was 95.8%.

Q: And the viability, T/C (second compound 0.0316 µM, first compound 0.00316 µM)?
A: The viability, T/C was 77.1%.

Q: What about the viability, T/C (second compound 0.0316 µM, first compound 0.01 µM) of the same compound?
A: The viability, T/C was 61.3%.

Q: What about the viability, T/C [1] of the same compound?
A: Its viability, T/C is 50.5%.

Q: What about the viability, T/C [2] of the same compound?
A: Its viability, T/C is 49.3%.

Q: And the viability, T/C (second compound 0.1 µM, first compound 0.000316 µM)?
A: Its viability, T/C is 81.4%.

Q: What about the viability, T/C (second compound 0.1 µM, first compound 0.001 µM) of the same compound?
A: The viability, T/C was 80.2%.

Q: And the viability, T/C (second compound 0.1 µM, first compound 0.00316 µM)?
A: Its viability, T/C is 70.3%.

Q: And the viability, T/C (second compound 0.1 µM, first compound 0.01 µM)?
A: The viability, T/C was 49.9%.

Q: And the viability, T/C [3]?
A: Its viability, T/C is 40.6%.

Q: And the viability, T/C [4]?
A: The viability, T/C was 40%.

Q: And the viability, T/C (second compound 0.316 µM, first compound 0.000316 µM)?
A: Its viability, T/C is 78.3%.

Q: And the viability, T/C (second compound 0.316 µM, first compound 0.001 µM)?
A: Its viability, T/C is 73.5%.

Q: What about the viability, T/C (second compound 0.316 µM, first compound 0.00316 µM) of the same compound?
A: The viability, T/C was 57.9%.

Q: And the viability, T/C (second compound 0.316 µM, first compound 0.01 µM)?
A: The viability, T/C was 44.5%.

Q: And the viability, T/C [5]?
A: The viability, T/C was 38%.

Q: And the viability, T/C [6]?
A: The viability, T/C was 31.3%.

Q: And the viability, T/C (second compound 1 µM, first compound 0.000316 µM)?
A: Its viability, T/C is 57.9%.

Q: And the viability, T/C (second compound 1 µM, first compound 0.001 µM)?
A: Its viability, T/C is 64%.

Q: And the viability, T/C (second compound 1 µM, first compound 0.00316 µM)?
A: The viability, T/C was 50.4%.

Q: And the viability, T/C (second compound 1 µM, first compound 0.01 µM)?
A: The viability, T/C was 29.4%.

Q: What about the viability, T/C [7] of the same compound?
A: The viability, T/C was 28.7%.

Q: And the viability, T/C [8]?
A: Its viability, T/C is 27.8%.

Q: And the viability, T/C (second compound 3.16 µM, first compound 0.000316 µM)?
A: The viability, T/C was 63.4%.

Q: And the viability, T/C (second compound 3.16 µM, first compound 0.001 µM)?
A: Its viability, T/C is 46.9%.

Q: What about the viability, T/C (second compound 3.16 µM, first compound 0.00316 µM) of the same compound?
A: Its viability, T/C is 39.2%.

Q: What about the viability, T/C (second compound 3.16 µM, first compound 0.01 µM) of the same compound?
A: The viability, T/C was 30.7%.

Q: And the viability, T/C [9]?
A: Its viability, T/C is 24.1%.

Q: What about the viability, T/C [10] of the same compound?
A: Its viability, T/C is 19.8%.

Q: What about the viability, T/C (second compound 10 µM, first compound 0.000316 µM) of the same compound?
A: Its viability, T/C is 55%.

Q: And the viability, T/C (second compound 10 µM, first compound 0.001 µM)?
A: The viability, T/C was 48%.

Q: What about the viability, T/C (second compound 10 µM, first compound 0.00316 µM) of the same compound?
A: Its viability, T/C is 37.9%.

Q: And the viability, T/C (second compound 10 µM, first compound 0.01 µM)?
A: The viability, T/C was 29.1%.

Q: And the viability, T/C [11]?
A: Its viability, T/C is 21.7%.

Q: What about the viability, T/C [12] of the same compound?
A: The viability, T/C was 17.8%.

Q: Which results are given for `C[C@@H](NC(=O)c1ncnc(N)c1Cl)c1ncc(C(=O)Nc2cc(C(F)(F)F)c(Cl)cn2)s1` + C#Cc1c(F)ccc2cc(O)cc(-c3ncc4c(N5CC6CCC(C5)N6)nc(OCC56CCCN5CC(F)C6)nc4c3F)c12?
A: IC50 (second compound 0.0316 µM): > 10000 nM; IC50 (second compound 0.1 µM): > 10000 nM; IC50 (second compound 0.316 µM): > 10000 nM; IC50 (second compound 1 µM): > 10000 nM; IC50 (second compound 3.16 µM): > 10000 nM; IC50 (second compound 10 µM): > 10000 nM; viability, T/C [1]: 93.3%; viability, T/C [2]: 136%; viability, T/C (second compound 0.0316 µM, first compound 0.316 µM): 93.4%; viability, T/C (second compound 0.0316 µM, first compound 1 µM): 85.8%; viability, T/C (second compound 0.0316 µM, first compound 3.16 µM): 97.9%; viability, T/C (second compound 0.0316 µM, first compound 10 µM): 95.3%; viability, T/C [3]: 91.3%; viability, T/C [4]: 102%; viability, T/C (second compound 0.1 µM, first compound 0.316 µM): 90.9%; viability, T/C (second compound 0.1 µM, first compound 1 µM): 88.4%; viability, T/C (second compound 0.1 µM, first compound 3.16 µM): 69.9%; viability, T/C (second compound 0.1 µM, first compound 10 µM): 88.8%; viability, T/C [5]: 75.9%; viability, T/C [6]: 84.1%; viability, T/C (second compound 0.316 µM, first compound 0.316 µM): 60.8%; viability, T/C (second compound 0.316 µM, first compound 1 µM): 75.4%; viability, T/C (second compound 0.316 µM, first compound 3.16 µM): 68.1%; viability, T/C (second compound 0.316 µM, first compound 10 µM): 78.4%; viability, T/C [7]: 67.2%; viability, T/C [8]: 74.5%; viability, T/C (second compound 1 µM, first compound 0.316 µM): 66.6%; viability, T/C (second compound 1 µM, first compound 1 µM): 62.1%; viability, T/C (second compound 1 µM, first compound 3.16 µM): 64.2%; viability, T/C (second compound 1 µM, first compound 10 µM): 71.4%; viability, T/C [9]: 63.4%; viability, T/C [10]: 66.7%; viability, T/C (second compound 3.16 µM, first compound 0.316 µM): 63.7%; viability, T/C (second compound 3.16 µM, first compound 1 µM): 53.9%; viability, T/C (second compound 3.16 µM, first compound 3.16 µM): 62.2%; viability, T/C (second compound 3.16 µM, first compound 10 µM): 66.2%; viability, T/C [11]: 63.3%; viability, T/C [12]: 64%; viability, T/C (second compound 10 µM, first compound 0.316 µM): 46.3%; viability, T/C (second compound 10 µM, first compound 1 µM): 55%; viability, T/C (second compound 10 µM, first compound 3.16 µM): 60.5%; viability, T/C (second compound 10 µM, first compound 10 µM): 63.8%
